Assays:
[1] = tested on: S. aureus Newman; assay: Bliss interaction score (quartile over a dose matrix) (fitness difference); higher = more antagonism (negative = synergy)
Method in brief: (§1)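 Fitness here means normalised growth, inferred for single drugs from the combination data. Growth was OD595 at entry into stationary phase, divided by the plate's robust no-drug mean and capped at 1. The Bliss score is observed minus expected fitness, with the expectation being the product, and its quartiles span technical, biological and donor/recipient replicates.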

[2] = tested on: B. subtilis 168; assay: as above
Method in brief: as §1

[3] = tested on: S. aureus DSM 20231; assay: as above
Method in brief: as §1

[4] = tested on: S. pneumoniae D39V; assay: as above
Method in brief: as §1

[5] = tested on: S. aureus Newman; assay: fitness (endpoint OD595 vs no drug) (fraction); higher = more growth
Method in brief: (§2)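 Fitness was defined as the optical density at the transition into stationary phase relative to the robust mean of no-drug control wells. Values were capped at 1. Cultures were started at OD595 0.01 in 384-well plates (30 µl, or 55 µl for S. pneumoniae) in TSB, LB Lennox or CY at 37 °C. OD595 was recorded every 30 min over 14 h, with the first reading subtracted as background.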

[6] = tested on: B. subtilis 168; assay: as above
Method in brief: as §2

[7] = tested on: S. aureus DSM 20231; assay: as above
Method in brief: as §2

[8] = first compound 0.125 µg/mL, partner 0.375 µg/mL
[9] = first compound 0.125 µg/mL, partner 0.75 µg/mL
[10] = first compound 0.125 µg/mL, partner 1.5 µg/mL
[11] = first compound 0.25 µg/mL, partner 0.375 µg/mL
[12] = first compound 0.25 µg/mL, partner 0.75 µg/mL
[13] = first compound 0.25 µg/mL, partner 1.5 µg/mL
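For Bliss interaction score (quartile over a dose matrix) in this document: first quartile when negative (synergy) and third quartile when positive (antagonism).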

`CC[C@H]1OC(=O)[C@H](C)[C@@H](O[C@H]2C[C@@](C)(OC)[C@@H](O)[C@H](C)O2)[C@H](C)[C@@H](O[C@@H]2O[C@H](C)C[C@H](N(C)C)[C@H]2O)[C@](C)(O)C[C@@H](C)CN(C)[C@H](C)[C@@H](O)[C@]1(C)O` [Azithromycin] + C1=CC(=CC(=C1)Cl)NN=C(C#N)C#N [CCCP] was tested, and the Bliss interaction score [1] was -0.0482, the Bliss interaction score [2] was -0.104 and the Bliss interaction score [3] was -0.0316. The Bliss interaction score [4] was -0.0621.

For `CC[C@H]1OC(=O)[C@H](C)[C@@H](O[C@H]2C[C@@](C)(OC)[C@@H](O)[C@H](C)O2)[C@H](C)[C@@H](O[C@@H]2O[C@H](C)C[C@H](N(C)C)[C@H]2O)[C@](C)(O)C[C@@H](C)CN(C)[C@H](C)[C@@H](O)[C@]1(C)O` [Azithromycin] + CC1(C)S[C@@H]2[C@H](NC(=O)Cc3ccccc3)C(=O)N2[C@H]1C(=O)O [PenicillinG], the Bliss interaction score [1] was -0.087, the Bliss interaction score [2] was 0.0629 and the Bliss interaction score [3] was -0.0514. The Bliss interaction score [4] was 0.0489.

With `CC[C@H]1OC(=O)[C@H](C)[C@@H](O[C@H]2C[C@@](C)(OC)[C@@H](O)[C@H](C)O2)[C@H](C)[C@@H](O[C@@H]2O[C@H](C)C[C@H](N(C)C)[C@H]2O)[C@](C)(O)C[C@@H](C)CN(C)[C@H](C)[C@@H](O)[C@]1(C)O` [Azithromycin] + CN1CCN(C2=Nc3ccccc3Oc3ccc(Cl)cc32)CC1 [Loxapine] the Bliss interaction score [3] was -0.147.

`CC[C@H]1OC(=O)[C@H](C)[C@@H](O[C@H]2C[C@@](C)(OC)[C@@H](O)[C@H](C)O2)[C@H](C)[C@@H](O[C@@H]2O[C@H](C)C[C@H](N(C)C)[C@H]2O)[C@](C)(O)C[C@@H](C)CN(C)[C@H](C)[C@@H](O)[C@]1(C)O` [Azithromycin] + Cc1c(Cl)cccc1Nc1ccccc1C(=O)O [Tolfenamic] showed a Bliss interaction score [3] of -0.292.

`CC[C@H]1OC(=O)[C@H](C)[C@@H](O[C@H]2C[C@@](C)(OC)[C@@H](O)[C@H](C)O2)[C@H](C)[C@@H](O[C@@H]2O[C@H](C)C[C@H](N(C)C)[C@H]2O)[C@](C)(O)C[C@@H](C)CN(C)[C@H](C)[C@@H](O)[C@]1(C)O` [Azithromycin] + N[C@@H]1CONC1=O [Cycloserine D] gave a fitness [5, 8] of 0.887, a fitness [5, 9] of 0.906 and a fitness [5, 10] of 0.898. For the same compound, the fitness [5, 11] was 0.868, the fitness [5, 12] was 0.908 and the fitness [5, 13] was 0.905. For the same compound, the fitness ([5]; first compound 0.5 µg/mL, partner 0.375 µg/mL) was 0.674, the fitness ([5]; first compound 0.5 µg/mL, partner 1.5 µg/mL) was 0.665 and the fitness ([6]; first compound 0.25 µg/mL, partner 0.125 µg/mL) was 0.946. For the same compound, the fitness ([6]; first compound 0.25 µg/mL, partner 0.25 µg/mL) was 0.918, the fitness ([6]; first compound 0.25 µg/mL, partner 0.5 µg/mL) was 0.892 and the fitness ([6]; first compound 0.5 µg/mL, partner 0.125 µg/mL) was 0.884. The fitness ([6]; first compound 0.5 µg/mL, partner 0.25 µg/mL) was 0.854, the fitness ([6]; first compound 0.5 µg/mL, partner 0.5 µg/mL) was 0.826 and the fitness ([6]; first compound 2 µg/mL, partner 0.125 µg/mL, one replicate) was 0.348. For the same compound, the fitness ([6]; first compound 2 µg/mL, partner 0.25 µg/mL, one replicate) was 0.0742, the fitness ([6]; first compound 2 µg/mL, partner 0.5 µg/mL, one replicate) was 0.066 and the fitness [7, 8] was 0.935. For the same compound, the fitness [7, 9] was 0.887, the fitness [7, 10] was 0.948 and the fitness [7, 11] was 0.881. For the same compound, the fitness [7, 12] was 0.869 and the fitness [7, 13] was 0.881.

`CC[C@H]1OC(=O)[C@H](C)[C@@H](O[C@H]2C[C@@](C)(OC)[C@@H](O)[C@H](C)O2)[C@H](C)[C@@H](O[C@@H]2O[C@H](C)C[C@H](N(C)C)[C@H]2O)[C@](C)(O)C[C@@H](C)CN(C)[C@H](C)[C@@H](O)[C@]1(C)O` [Azithromycin] + O=C(O)c1cc(-c2ccc(F)cc2F)ccc1O [Diflunisal] was tested, and the Bliss interaction score [3] was -0.146.

Work on `CN(C)CCCN1c2ccccc2Sc2ccc(Cl)cc21` [Chlorpromazine] + CC(=O)NC[C@H]1CN(c2ccc(N3CCOCC3)c(F)c2)C(=O)O1 [Linezolid] yielded a Bliss interaction score [3] of -0.236.

Compound `CN(C)CCCN1c2ccccc2Sc2ccc(Cl)cc21` [Chlorpromazine] + CCC[C@@H]1C[C@@H](C(=O)N[C@@H]([C@H]2O[C@H](SC)[C@H](O)[C@@H](O)[C@H]2O)[C@@H](C)O)N(C)C1 [Lincomycin] has a Bliss interaction score [3] of -0.233.

With `CN(C)CCCN1c2ccccc2Sc2ccc(Cl)cc21` [Chlorpromazine] + CN(C)C(=O)C(CCN1CCC(O)(c2ccc(Cl)cc2)CC1)(c1ccccc1)c1ccccc1 [Loperamide] the Bliss interaction score [3] was -0.311.

`CN(C)CCCN1c2ccccc2Sc2ccc(Cl)cc21` [Chlorpromazine] + CN[C@H](CC(C)C)C(=O)N[C@H]1C(=O)N[C@@H](CC(N)=O)C(=O)N[C@H]2C(=O)N[C@H]3C(=O)N[C@H](C(=O)N[C@H](C(=O)O)c4cc(O)cc(O)c4-c4cc3ccc4O)[C@H](O[C@H]3C[C@](C)(N)[C@@H](O)[C@H](C)O3)c3ccc(c(Cl)c3)Oc3cc2cc(c3O[C@@H]2O[C@H](CO)[C@@H](O)[C@H](O)[C@H]2O[C@H]2C[C@](C)(NCc3ccc(-c4ccc(Cl)cc4)cc3)[C@@H](O)[C@H](C)O2)Oc2ccc(cc2Cl)[C@H]1O [Oritavancin] gave a Bliss interaction score [3] of -0.202.

Work on `CN(C)CCCN1c2ccccc2Sc2ccc(Cl)cc21` [Chlorpromazine] + C[C@H]1c2cccc(O)c2C(=O)C2=C(O)[C@]3(O)C(=O)C(C(N)=O)=C(O)[C@@H](N(C)C)[C@@H]3[C@@H](O)[C@@H]21 [Doxycycline] yielded a Bliss interaction score [3] of -0.263.

In the case of `O=C(O)[C@H]1/C(=C/CO)O[C@@H]2CC(=O)N21` [Clavulanic] + C/C(=C\C(=O)OCCCCCCCCC(=O)O)C[C@@H]1OC[C@H](C[C@@H]2O[C@H]2[C@@H](C)[C@H](C)O)[C@@H](O)[C@H]1O [Pseudomonic acid], the Bliss interaction score [2] is reported as -0.0513 and the Bliss interaction score [4] is reported as -0.0849.

For `O=C(O)[C@H]1/C(=C/CO)O[C@@H]2CC(=O)N21` [Clavulanic] + CN[C@@H]1[C@H](O[C@H]2[C@H](O[C@H]3[C@H](O)[C@@H](O)[C@H](N=C(N)N)[C@@H](O)[C@@H]3N=C(N)N)O[C@@H](C)[C@]2(O)C=O)O[C@@H](CO)[C@H](O)[C@H]1O [Streptomycin], the Bliss interaction score [1] was 0.218, the Bliss interaction score [2] was 0.0954 and the Bliss interaction score [4] was 0.0425.

`CNC(C)C1CCC(N)C(OC2C(N)CC(N)C(OC3OCC(C)(O)C(NC)C3O)C2O)O1` (stereo not drawn) [Gentamicin] + CC(C)Cc1ccc(C(C)C(=O)O)cc1 [Ibuprofen] gave a Bliss interaction score ([3]; main component drawn) of -0.442.

In the case of `CNC(C)C1CCC(N)C(OC2C(N)CC(N)C(OC3OCC(C)(O)C(NC)C3O)C2O)O1` (stereo not drawn) [Gentamicin] + CCCSc1nc(N[C@@H]2C[C@H]2c2ccc(F)c(F)c2)c2nnn([C@@H]3C[C@H](OCCO)[C@@H](O)[C@H]3O)c2n1 [Ticagrelor], the Bliss interaction score ([3]; main component drawn) is reported as -0.576.

In the case of `CNC(C)C1CCC(N)C(OC2C(N)CC(N)C(OC3OCC(C)(O)C(NC)C3O)C2O)O1` (stereo not drawn) [Gentamicin] + CCCc1nc2c(C)cc(-c3nc4ccccc4n3C)cc2n1Cc1ccc(-c2ccccc2C(=O)O)cc1 [Telmisartan], the Bliss interaction score ([3]; main component drawn) is reported as 0.241.

With `CNC(C)C1CCC(N)C(OC2C(N)CC(N)C(OC3OCC(C)(O)C(NC)C3O)C2O)O1` (stereo not drawn) [Gentamicin] + CC[C@H](c1ccc(O)cc1)[C@@H](CC)c1ccc(O)cc1 [Hexestrol] the Bliss interaction score ([3]; main component drawn) was -0.536.

From the supplement of paper PMC10627819
